From patent US11117905B2, “Bisaryl heterocycles as NRF2 activators” (GLAXOSMITHKLINE INTELLECTUAL PROPERTY DEVELOPMENT LIMITED, priority 2016, dated 2021)
Where a name gives a salt, the structure may show the parent alone.

Assays:
[1] = system: NQO1 specific enzyme activity in BEAS-2B cells (marker for NRF2 activation); test: BEAS-2B NQO1 MTT Assay; format: cell-based; settings: Homo sapiens, BEAS-2B, 48 h, NQO1 specific activity induction, 48 hours with compound
How it was run: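 BEAS-2B cells were plated at 250,000 cells/mL and treated after overnight culture with compound for 48 h at 37° C, 5% CO2. NQO1 activity in crude lysates was read kinetically as MTT reduction at 570 nm over 30 min. pEC50 comes from ΔOD/min versus log concentration with a 3-parameter fit.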

[2] = system: rats on a choline-deficient L-amino acid-defined diet; settings: cited from earlier work
[3] = system: COPD macrophages and alveolar macrophages from cigarette smoke-exposed mice; settings: cited from earlier work
[4] = system: rats in a cerebral ischemia-reperfusion model; settings: cited from earlier work
[5] = system: NRF2 wild-type and KO mice; settings: after administration, NRF2 wild-type vs KO mice; cited from earlier work

| Structure (SMILES) | EC50 [1] [nM] | other results |
| --- | --- | --- |
| CC[C@@H]1CN(Cc2cc([C@@H](c3ccc4c(nnn4CC)c3C)C(C)(C)C(=O)O)sc2Cl)S(=O)(=O)c2cnccc2O1 [Example 56, (S)-3-(5-Chloro-4-(((R)-4-ethyl-1,1-dioxido-3,4-dihydro-2H-pyrido[4,3-b][1,4,5]oxathiazepin-2-yl)methyl)thiophen-2-yl)-3-(1-ethyl-4-methyl-1H-benzo[d][1,2,3]triazol-5-yl)-2,2-dimethylpropanoic Acid] | < 1 |  |
| CCn1nnc2c(F)c([C@H](c3cc(CN4C[C@@H](C)Cc5ccc(C(F)(F)F)cc5S4(=O)=O)c(Cl)s3)C(C)(C)C(=O)O)ccc21 [Example 57, (R)-3-(5-Chloro-4-(((S)-4-methyl-1,1-dioxido-8-(trifluoromethyl)-4,5-dihydrobenzo[f][1,2]thiazepin-2(3H)-yl)methyl)thiophen-2-yl)-3-(1-ethyl-4-fluoro-1H-benzo[d][1,2,3]triazol-5-yl)-2,2-dimethylpropanoic Acid] | < 1 |  |
| CC[C@@H]1CN(Cc2cc([C@H](CCc3cn(CC)nn3)C(C)(C)C(=O)O)sc2C)S(=O)(=O)c2cccnc2O1 [Example 58, (R)-3-(4-(((R)-4-Ethyl-1,1-dioxido-3,4-dihydro-2H-pyrido[2,3-b][1,4,5]oxathiazepin-2-yl)methyl)-5-methylthiophen-2-yl)-5-(1-ethyl-1H-1,2,3-triazol-4-yl)-2,2-dimethylpentanoic Acid] | 1 to 10 |  |
| CC[C@@H]1CN(Cc2cc([C@@H](CCc3cn(CC)nn3)C(C)(C)C(=O)O)sc2C)S(=O)(=O)c2cccnc2O1 [Example 59, (S)-3-(4-(((R)-4-Ethyl-1,1-dioxido-3,4-dihydro-2H-pyrido[2,3-b][1,4,5]oxathiazepin-2-yl)methyl)-5-methylthiophen-2-yl)-5-(1-ethyl-1H-1,2,3-triazol-4-yl)-2,2-dimethylpentanoic Acid] | 1 to 10 |  |
| CC[C@@H]1CN(Cc2cc([C@@H](c3ccc4c(nnn4CC)c3C)C(C)(C)C(=O)O)sc2C)Cc2ncccc2O1 [Example 60, (S)-3-(4-(((R)-2-Ethyl-2,3-dihydropyrido[2,3-f][1,4]oxazepin-4(5H)-yl)methyl)-5-methylthiophen-2-yl)-3-(1-ethyl-4-methyl-1H-benzo[d][1,2,3]triazol-5-yl)-2,2-dimethylpropanoic Acid] | 1 to 10 |  |
| CCn1cc(CC[C@@H](c2cc(CN3C[C@@H](C)Cc4ncccc4S3(=O)=O)c(C)s2)C(C)(C)C(=O)O)nn1 [Example 61, (R)-5-(1-Ethyl-1H-1,2,3-triazol-4-yl)-2,2-dimethyl-3-(5-methyl-4-(((S)-4-methyl-1,1-dioxido-4,5-dihydropyrido[2,3-f][1,2]thiazepin-2(3H)-yl)methyl)thiophen-2-yl)pentanoic Acid] | 1 to 10 |  |
| CCn1cc(CC[C@H](c2cc(CN3C[C@@H](C)Cc4ncccc4S3(=O)=O)c(C)s2)C(C)(C)C(=O)O)nn1 [Example 62, (S)-5-(1-Ethyl-1H-1,2,3-triazol-4-yl)-2,2-dimethyl-3-(5-methyl-4-(((S)-4-methyl-1,1-dioxido-4,5-dihydropyrido[2,3-f][1,2]thiazepin-2(3H)-yl)methyl)thiophen-2-yl)pentanoic Acid] | 1 to 10 |  |
| CC[C@@H]1CN(Cc2cc([C@@H](CCc3cn(CC)nn3)C(C)(C)C(=O)O)sc2C)S(=O)(=O)c2ccccc2O1 [Example 63, (S)-3-(4-(((R)-4-Ethyl-1,1-dioxido-3,4-dihydro-2H-benzo[b][1,4,5]oxathiazepin-2-yl)methyl)-5-methylthiophen-2-yl)-5-(1-ethyl-1H-1,2,3-triazol-4-yl)-2,2-dimethylpentanoic Acid] | 1 to 10 |  |
| CC[C@@H]1CN(Cc2cc([C@H](CCc3cn(CC)nn3)C(C)(C)C(=O)O)sc2C)S(=O)(=O)c2ccccc2O1 [Example 64, (R)-3-(4-(((R)-4-Ethyl-1,1-dioxido-3,4-dihydro-2H-benzo[b][1,4,5]oxathiazepin-2-yl)methyl)-5-methylthiophen-2-yl)-5-(1-ethyl-1H-1,2,3-triazol-4-yl)-2,2-dimethylpentanoic Acid] | < 1 |  |
| CC[C@@H]1CN(Cc2cc([C@@H](c3ccc4c(nnn4CC)c3C)C(C)(C)C(=O)Nc3nnn[nH]3)sc2C)S(=O)(=O)c2ccccc2O1 [Example 65, (S)-3-(4-(((R)-4-Ethyl-1,1-dioxido-3,4-dihydro-2H-benzo[b][1,4,5]oxathiazepin-2-yl)methyl)-5-methylthiophen-2-yl)-3-(1-ethyl-4-methyl-1H-benzo[d][1,2,3]triazol-5-yl)-2,2-dimethyl-N-(1H-tetrazol-5-yl)propanamide, 0.10Formic Acid Salt] | 10 to 100 |  |
| O=C(NCc1ccccn1)Nc1nnc(-c2ccco2)o1 [NK-252] |  | progression of histologic abnormalities, especially hepatic fibrosis [2]: significantly attenuated progression |
| C[S+]([O-])CCCCN=C=S (stereo not shown) [Sulforaphane] |  | expression of Macrophage Receptor with Collagenous structure (MARCO) ([3]; COPD macrophages and alveolar macrophages from cigarette smoke-exposed mice): increases the expression of Macrophage Receptor with Collagenous structure (MARCO); bacterial phagocytosis (Pseudomonas aeruginosa, non-typable Haemophilus influenzae) and bacterial clearance ([3]; ex vivo and in vivo): improving in these cells bacterial phagocytosis |
| Cc1c(-c2cnccn2)ssc1=S [oltipraz] |  | progression of histologic abnormalities, especially hepatic fibrosis [2]: significantly attenuated progression |
| CC(C)(C)c1cc(O)ccc1O [tBHQ, tert-butylhydroquinone] |  | cortical damage [4]: reduced cortical damage; cortical glutathione levels [5]: increased in NRF2 wild-type but not KO mice |
